Assay results reported in US20060205028A1, “Active-site titration of glycosyl hydrolases” (Novozymes A/S, priority 2003, published 2006).

System: xylanase Shearzyme
Test: Burst active site titration of xylanase
Type: biochemical
Conditions: for Burst B: pH 5.0, room temperature
Protocol: The synthesized burst active site titrant 2,4-dinitrophenyl 2-deoxy-2-flouro-β-D-xylopyranoside was dissolved in Milli Q water. 100 μl dissolved titrant was mixed with 50 μl assay buffer (50 mM sodium acetate, 0.0225% Brij 35, pH 5.0) and 50 μl of a purified sample of the commercial xylanase Shearzyme (available from Novozymes) diluted in Milli Q water in the wells of a microtiter plate. Final concentrations of 2,4-dinitrophenyl 2-deoxy-2-flouro-β-D-xylopyranoside were 0.5 mM and 1 mM, whereas the xylanase was added to give final absorbances at 280 nm of 13.4, 6.7 and 3.3. After mixing, absorbance was read at 405 nm at room temperature every 7 min for 30 hours using a SpectraMax Plus (Molecular Devices) microtiter plate reader. After subtraction of absorbances read in wells with same concentration of titrant but without enzyme, the measurements were fitted to the equation: A405=B*(1−exp(−(t+LT)*ln(2)/T1/2))+S*(t+LT)
where A405 is the absorbance at 405 nm, B is the burst in absorbance at 405 nm, t is the time from first measurement of absorbance, LT is the lag time from mixing of the reagents to first measurement of absorbance, T1/2 is the half time for the exponential burst phase and S is the slope due to hydrolysis of the enzyme 2-deoxy-2-fluoro-β-D-xylopyranose complex.

[1] = Xylanase A280 3.3, titrant 0.5 mM
[2] = Xylanase A280 3.3, titrant 1 mM
[3] = Xylanase A280 6.7, titrant 0.5 mM
[4] = Xylanase A280 6.7, titrant 1 mM
[5] = Xylanase A280 13.4, titrant 0.5 mM
[6] = Xylanase A280 13.4, titrant 1 mM

O=[N+]([O-])c1ccc(O[C@@H]2OC[C@@H](O)[C@H](O)[C@H]2F)c([N+](=O)[O-])c1 [2,4-dinitrophenyl 2-deoxy-2-flouro-β-D-xylopyranoside]
Slope S (hydrolysis of the enzyme 2-deoxy-2-fluoro-β-D-xylopyranose complex) [1]: 0.00 A405/h | Burst B [1]: 0.24 A405 | Slope S (hydrolysis of the enzyme 2-deoxy-2-fluoro-β-D-xylopyranose complex) [2]: 0.00 A405/h | Burst B [2]: 0.23 A405 | Slope S (hydrolysis of the enzyme 2-deoxy-2-fluoro-β-D-xylopyranose complex) [3]: 0.00 A405/h | Burst B [3]: 0.47 A405 | Slope S (hydrolysis of the enzyme 2-deoxy-2-fluoro-β-D-xylopyranose complex) [4]: 0.00 A405/h | Burst B [4]: 0.48 A405 | Slope S (hydrolysis of the enzyme 2-deoxy-2-fluoro-β-D-xylopyranose complex) [5]: 0.00 A405/h | Burst B [5]: 0.84 A405 | Slope S (hydrolysis of the enzyme 2-deoxy-2-fluoro-β-D-xylopyranose complex) [6]: 0.00 A405/h | Burst B [6]: 0.90 A405
